Measurements taken from patent US10959432B2, “Microbiocidal oxadiazole derivatives” (Syngenta Participations AG, priority 2016, dated 2021).
Where “and” joins values, the source holds several entries; their conditions need not be identical. Identical values can stand only once.

What was measured:
[1] = test system: Uromyces viciae-fabae; assay: Fungicidal activity against Uromyces viciae-fabae / field bean / leaf disc preventative (faba-bean rust); assay type: in vivo; conditions: foliar, 288 h, 100 ppm in the applied formulation, field bean leaf discs, preventative (inoculated two hours after application), assessed 12 days after application, read-out: disease control compared to untreated control leaf discs
How it was run: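 Field bean leaf discs on water agar treated with 10 μl compound in acetone plus spreader, then spray-inoculated on the lower surface with Uromyces viciae-fabae spores 2 h later. Incubation at 22 °C, 18 h day, 70% RH; percent disease control versus untreated scored 12 days after application, compounds at 100 ppm.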

[2] = test system: Puccinia recondita f. sp. tritici; assay: Fungicidal activity against Puccinia recondita f. sp. tritici / wheat / leaf disc preventative (brown rust); assay type: in vivo; conditions: foliar, 200 ppm in the applied formulation, wheat leaf segments cv. Kanzler, preventative (inoculated 1 day after application), assessed 7 to 9 days after application, read-out: disease control compared to untreated control leaf disks
How it was run: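 Wheat cv. Kanzler leaf segments on agar sprayed with formulated compound diluted in water, inoculated with P. recondita spores 1 day later. Incubated at 19C, 75% rh, 12 h light/12 h dark; scored 7 to 9 days after application as percent disease control versus untreated segments. Test rate 200 ppm.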

[3] = test system: Puccinia recondita f. sp. tritici; assay: Fungicidal activity against Puccinia recondita f. sp. tritici / wheat / leaf disc curative (brown rust); assay type: in vivo; conditions: foliar, 200 ppm in the applied formulation, wheat leaf segments cv. Kanzler, curative (applied 1 day after inoculation), assessed 6 to 8 days after application, read-out: disease control compared to untreated control leaf disks
How it was run: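 Wheat cv. Kanzler leaf segments on agar, spore-inoculated, held dark at 19° C./75% RH; formulated compound in water sprayed 1 day post-inoculation (curative). Incubated 19° C., 75% RH, 12 h light/12 h dark; percent disease control vs untreated scored 6 to 8 days after application.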

[4] = test system: Phakopsora pachyrhizi; assay: Fungicidal activity against Phakopsora pachyrhizi / soybean / leaf disc preventative (Asian soybean rust); assay type: in vivo; conditions: foliar, 200 ppm in the applied formulation, soybean leaf disks, preventative (inoculated one day after application), assessed 12 to 14 days after application, read-out: disease control compared to untreated control leaf disks
How it was run: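 Soybean leaf discs on water agar sprayed with formulated compound diluted in water; spore suspension sprayed on lower leaf surface one day later. Incubated 24-36 h dark at 20° C, 75% rh, then 20° C, 12 h light/day, 75% rh. Percent disease control versus untreated scored 12 to 14 days after application.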

[5] = test system: Glomerella laqenarium (Colletotrichum lagenarium); assay: Fungicidal activity against Glomerella lagenarium (Colletotrichum lagenarium) liquid culture / cucumber / preventative (anthracnose); assay type: cell-based; conditions: Colletotrichum orbiculare; 20 ppm in the applied formulation; liquid culture in PDB, 24° C., 3 to 4 days after application; read-out: disease control compared to untreated control (inhibition of growth measured photometrically)
How it was run: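 Cryostored conidia mixed into potato dextrose broth and added to test compound (from DMSO solution) in microtiter plates. Incubated at 24 °C; growth inhibition read photometrically 3 to 4 days after application, as percent activity versus untreated check.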

## CC1CC(NC(=O)c2ccc(-c3noc(C(F)(F)F)n3)cc2F)=NO1 (stereo not drawn) [Compound 1b.15, 2-fluoro-N-(5-methyl-4,5-dihydroisoxazol-3-yl)-4-[5-(trifluoromethyl)-1,2,4-oxadiazol-3-yl]benzamide]
[1]
  pest or weed control at 100 ppm: ≥ 80%
[2]
  pest or weed control at 200 ppm: ≥ 80%
other
  melting point: 152.5 to 155.9 °C
[3]
  pest or weed control at 200 ppm: ≥ 80%
[4]
  pest or weed control at 200 ppm: ≥ 80%
[5]
  inhibition at 20 ppm: ≥ 80%

## O=C(NCC1CCOC1)c1ccc(-c2noc(C(F)(F)F)n2)cc1F (stereo not drawn) [Compound 1b.16, 2-fluoro-N-(tetrahydrofuran-3-ylmethyl)4[5(trifluoromethyl)-1,2,4-oxadiazol-3-yl]benzamide]
[1]
  pest or weed control at 100 ppm: ≥ 80%
[2]
  pest or weed control at 200 ppm: ≥ 80%
other
  melting point: 124.2 to 126.2 °C
[3]
  pest or weed control at 200 ppm: ≥ 80%
[4]
  pest or weed control at 200 ppm: ≥ 80%
[5]
  inhibition at 20 ppm: ≥ 80%

## O=C(NCC1CCCO1)c1ccc(-c2noc(C(F)(F)F)n2)cc1F (stereo not drawn) [Compound 1b.17, 2-fluoro-N-(tetrahydrofuran-2-ylmethyl)-4-[5-(trifluoromethyl)-1,2,4-oxadiazol-3-yl]benzamide]
[1]
  pest or weed control at 100 ppm: ≥ 80%
[2]
  pest or weed control at 200 ppm: ≥ 80%
other
  melting point: 95.6 to 96.7 °C
[3]
  pest or weed control at 200 ppm: ≥ 80%
[4]
  pest or weed control at 200 ppm: ≥ 80%
[5]
  inhibition at 20 ppm: ≥ 80%

## O=C(NCC1CCOCC1)c1ccc(-c2noc(C(F)(F)F)n2)cc1F [Compound 1b.18, 2-fluoro-N-(tetrahydropyran-4-ylmethyl)-4-[5-(trifluoromethyl)-1,2,4-oxadiazol-3-yl]benzamide]
[1]
  pest or weed control at 100 ppm: ≥ 80%
[2]
  pest or weed control at 200 ppm: ≥ 80%
other
  melting point: 134 to 136 °C and 134 to 135.4 °C
[3]
  pest or weed control at 200 ppm: ≥ 80%
[4]
  pest or weed control at 200 ppm: ≥ 80%
[5]
  inhibition at 20 ppm: ≥ 80%

## O=C(NCC1CC1)c1ccc(-c2noc(C(F)(F)F)n2)cc1F [Compound 2b.1, N-(cyclopropylmethyl)-2-fluoro-4-[5-(trifluoromethyl)-1,2,4-oxadiazol-3-yl]benzamide]
[1]
  pest or weed control at 100 ppm: ≥ 80%
[2]
  pest or weed control at 200 ppm: ≥ 80%
other
  melting point: 113.5 to 114.7 °C
[3]
  pest or weed control at 200 ppm: ≥ 80%
[4]
  pest or weed control at 200 ppm: ≥ 80%
[5]
  inhibition at 20 ppm: ≥ 80%

## C=CCNC(=O)c1ccc(-c2noc(C(F)(F)F)n2)cc1 [Compound 3a.1, N-allyl-4-[5-(trifluoromethyl)-1,2,4-oxadiazol-3-yl]benzamide]
[1]
  pest or weed control at 100 ppm: ≥ 80%
[2]
  pest or weed control at 200 ppm: ≥ 80%
other
  melting point: 135 to 136 °C and 135 to 146 °C
[3]
  pest or weed control at 200 ppm: ≥ 80%
[4]
  pest or weed control at 200 ppm: ≥ 80%
[5]
  inhibition at 20 ppm: ≥ 80%

## C#CCNC(=O)c1ccc(-c2noc(C(F)(F)F)n2)cc1 [Compound 3a.2, N-prop-2-ynyl-4-[5-(trifluoromethyl)-1,2,4-oxadiazol-3-yl]benzamide]
[1]
  pest or weed control at 100 ppm: ≥ 80%
[2]
  pest or weed control at 200 ppm: ≥ 80%
other
  melting point: 168.5 to 170 °C
[3]
  pest or weed control at 200 ppm: ≥ 80%
[4]
  pest or weed control at 200 ppm: ≥ 80%
[5]
  inhibition at 20 ppm: ≥ 80%

## CC#CC(C)(C)NC(=O)c1ccc(-c2noc(C(F)(F)F)n2)cc1 [Compound 3a.5, N-(1,1-dimethylbut-2-ynyl)-4-[5-(trifluoromethyl)-1,2,4-oxadiazol-3-yl]benzamide]
[1]
  pest or weed control at 100 ppm: ≥ 80%
[2]
  pest or weed control at 200 ppm: ≥ 80%
other
  melting point: 104 to 105.1 °C
[3]
  pest or weed control at 200 ppm: ≥ 80%
[4]
  pest or weed control at 200 ppm: ≥ 80%

## CC(C)(CO)NC(=O)c1ccc(-c2noc(C(F)(F)F)n2)cc1 [Compound 3a.17, N-(2-hydroxy-1,1-dimethyl-ethyl)-4-[5-(trifluoromethyl)-1,2,4-oxadiazol-3-yl]benzamide]
[1]
  pest or weed control at 100 ppm: ≥ 80%
[2]
  pest or weed control at 200 ppm: ≥ 80%
other
  melting point: 130 to 135 °C
[3]
  pest or weed control at 200 ppm: ≥ 80%
[5]
  inhibition at 20 ppm: ≥ 80%

## CCCNC(=O)c1ccc(-c2noc(C(F)(F)F)n2)cc1F [Compound 3b.1, 2-fluoro-N-propyl-4-[5-(trifluoromethyl)-1,2,4-oxadiazol-3-yl]benzamide]
[1]
  pest or weed control at 100 ppm: ≥ 80%
[2]
  pest or weed control at 200 ppm: ≥ 80%
other
  melting point: 118.5 to 119.9 °C
[3]
  pest or weed control at 200 ppm: ≥ 80%
[4]
  pest or weed control at 200 ppm: ≥ 80%
[5]
  inhibition at 20 ppm: ≥ 80%

## CCNC(=O)c1ccc(-c2noc(C(F)(F)F)n2)cc1F [Compound 3b.2, N-ethyl-2-fluoro-4-[5-(trifluoromethyl)-1,2,4-oxadiazol-3-yl]benzamide]
[1]
  pest or weed control at 100 ppm: ≥ 80%
[2]
  pest or weed control at 200 ppm: ≥ 80%
other
  melting point: 125 to 127 °C
[3]
  pest or weed control at 200 ppm: ≥ 80%
[4]
  pest or weed control at 200 ppm: ≥ 80%
[5]
  inhibition at 20 ppm: ≥ 80%

## C=CCNC(=O)c1ccc(-c2noc(C(F)(F)F)n2)cc1F [Compound 3b.3, N-allyl-2-fluoro-4-[5-(trifluoromethyl)-1,2,4-oxadiazol-3-yl]benzamide]
[1]
  pest or weed control at 100 ppm: ≥ 80%
[2]
  pest or weed control at 200 ppm: ≥ 80%
other
  melting point: 108 to 109.3 °C
[3]
  pest or weed control at 200 ppm: ≥ 80%
[4]
  pest or weed control at 200 ppm: ≥ 80%
[5]
  inhibition at 20 ppm: ≥ 80%

## C#CCNC(=O)c1ccc(-c2noc(C(F)(F)F)n2)cc1F [Compound 3b.4, 2-fluoro-N-prop-2-ynyl-4-[5-(trifluoromethyl)-1,2,4-oxadiazol-3-yl]benzamide]
[1]
  pest or weed control at 100 ppm: ≥ 80%
[2]
  pest or weed control at 200 ppm: ≥ 80%
other
  melting point: 128.2 to 129.4 °C
[3]
  pest or weed control at 200 ppm: ≥ 80%
[4]
  pest or weed control at 200 ppm: ≥ 80%
[5]
  inhibition at 20 ppm: ≥ 80%

## O=C(NCc1ccccc1F)c1ccc(-c2noc(C(F)(F)F)n2)cc1F [Compound 4b.1, 2-fluoro-N-[(2-fluorophenyl)methyl]-4-[5-(trifluoromethyl)-1,2,4-oxadiazol-3-yl]benzamide]
[1]
  pest or weed control at 100 ppm: ≥ 80%
[2]
  pest or weed control at 200 ppm: ≥ 80%
other
  melting point: 132 to 136 °C
[4]
  pest or weed control at 200 ppm: ≥ 80%
[5]
  inhibition at 20 ppm: ≥ 80%

## O=C(NCc1ccc(F)cc1)c1ccc(-c2noc(C(F)(F)F)n2)cc1F [Compound 4b.2]
[1]
  pest or weed control at 100 ppm: ≥ 80%
[2]
  pest or weed control at 200 ppm: ≥ 80%
other
  melting point: 145 to 147 °C
[4]
  pest or weed control at 200 ppm: ≥ 80%
[5]
  inhibition at 20 ppm: ≥ 80%

## COc1ccccc1CNC(=O)c1ccc(-c2noc(C(F)(F)F)n2)cc1F [Compound 4b.5, 2-fluoro-N-[(2-methoxyphenyl)methyl]-4-[5-(trifluoromethyl)-1,2,4-oxadiazol-3-yl]benzamide]
[1]
  pest or weed control at 100 ppm: ≥ 80%
[2]
  pest or weed control at 200 ppm: ≥ 80%
other
  melting point: 113.3 to 114.8 °C
[4]
  pest or weed control at 200 ppm: ≥ 80%
[5]
  inhibition at 20 ppm: ≥ 80%

## O=C(NCc1ccccc1)c1ccc(-c2noc(C(F)(F)F)n2)cc1F [Compound 4b.6, N-benzyl-2-fluoro-4-[5-(trifluoromethyl)-1,2,4-oxadiazol-3-yl]benzamide]
[1]
  pest or weed control at 100 ppm: ≥ 80%
[2]
  pest or weed control at 200 ppm: ≥ 80%
other
  melting point: 146 to 147.7 °C
[3]
  pest or weed control at 200 ppm: ≥ 80%
[4]
  pest or weed control at 200 ppm: ≥ 80%

## O=C(NCCc1ccc(F)cc1)c1ccc(-c2noc(C(F)(F)F)n2)cc1F [Compound 4b.7, 2-fluoro-N-[2-(4-fluorophenyl)ethyl]-4-[5-(trifluoromethyl)-1,2,4-oxadiazol-3-yl]benzamide]
[1]
  pest or weed control at 100 ppm: ≥ 80%
[2]
  pest or weed control at 200 ppm: ≥ 80%
other
  melting point: 128.2 to 129.4 °C
[4]
  pest or weed control at 200 ppm: ≥ 80%
[5]
  inhibition at 20 ppm: ≥ 80%

## O=C(NCCc1ccccc1)c1ccc(-c2noc(C(F)(F)F)n2)cc1F [Compound 4b.8, 2-fluoro-N-(2-phenylethyl)-4-[5-(trifluoromethyl)-1,2,4-oxadiazol-3-yl]benzamide]
[1]
  pest or weed control at 100 ppm: ≥ 80%
[2]
  pest or weed control at 200 ppm: ≥ 80%
other
  melting point: 130 to 131.9 °C
[4]
  pest or weed control at 200 ppm: ≥ 80%
[5]
  inhibition at 20 ppm: ≥ 80%

## O=C(NCc1cccs1)c1ccc(-c2noc(C(F)(F)F)n2)cc1F [Compound 5b.1, 2-fluoro-N-(2-thienylmethyl)-4-[5-(trifluoromethyl)-1,2,4-oxadiazol-3-yl]benzamide]
[1]
  pest or weed control at 100 ppm: ≥ 80%
[2]
  pest or weed control at 200 ppm: ≥ 80%
other
  melting point: 142.7 to 143 °C
[3]
  pest or weed control at 200 ppm: ≥ 80%
[4]
  pest or weed control at 200 ppm: ≥ 80%
